One series relates to Pyricularia oryzae. The class given is in vivo. The conditions noted are these: rice plants, preventive spray, dose 500 ppm, grading 6 days after contamination.
The nature of series [1]: Measurement of logP values by HPLC on reversed phase columns (EEC directive 79/831 Annex V.A8). Type of series: physicochemical.
The next series has as its system Septoria tritici. As to the kind of experiment: In vivo preventive test on Septoria tritici (leaf spot on wheat). To be noted: wheat plants, preventive spray, dose 100 ppm, grading 24 days after contamination. Here is the method:
Wheat plants (“Scipion” variety), sown in starter cups on a 50/50 peat soil-pozzolana substrate and grown at 22° C., are treated at the 1-leaf stage (10 cm height) by spraying with the active ingredient prepared as described above. Plants, used as controls, are treated with the mixture of acetone/tween/DMSO/water not containing the active material. After 24 hours, the plants are contaminated by spraying the leaves with an aqueous suspension of cryopreserved Septoria tritici spores (500 000 spores per ml). […] Grading (% of efficacy) is carried out 24 days after the contamination, in comparison with the control plants.

The test system of a further series is Uromyces appendiculatus. Kind of series: In vivo preventive test on Uromyces appendiculatus (bean rust). The conditions noted are these: bean plants, preventive spray, dose 100 ppm, grading 11 days after contamination. Here is the method: Plants, used as controls, are treated with the mixture of acetone/tween/DMSO/water not containing the active material. After 24 hours, the plants are contaminated by spraying the leaves with an aqueous suspension of Uromyces appendiculatus spores (150 000 spores per ml). […] Grading (% of efficacy) is carried out 11 days after the contamination, in comparison with the control plants.

For a further series, the system named is Sphaerotheca fuliginea. Kind of series: In vivo preventive test on Sphaerotheca fuliginea (powdery mildew on cucurbits). The conditions noted are these: gherkin plants, preventive spray, dose 100 ppm, grading 12 days after contamination. Here is the method: Gherkin plants (“Vert petit de Paris” variety), sown in starter cups on a 50/50 peat soil-pozzolana substrate and grown at 24° C., are treated at the Z11 cotyledon stage by spraying with the active ingredient prepared as described above. Plants, used as controls, are treated with the mixture of acetone/tween/DMSO/water not containing the active material. After 24 hours, the plants are contaminated by spraying the cotyledons with an aqueous suspension of Sphaerotheca fuliginea spores (100 000 spores per ml). The spores are collected from infected plants. […] Grading (% of efficacy) is carried out 12 days after the contamination, in comparison with the control plants.

For a further series, the system named is Botrytis cinerea. Kind of series: In vivo preventive test on Botrytis cinerea (grey mould). The conditions noted are these: gherkin plants, preventive spray, dose 100 ppm, grading 4 to 5 days after contamination. Here is the method: Gherkin plants (“Vert petit de Paris” variety), sown in starter cups on a 50/50 peat soil-pozzolana substrate and grown at 24° C., are treated at the Z11 cotyledon stage by spraying with the active ingredient prepared as described above. Plants, used as controls, are treated with the mixture of acetone/tween/DMSO/water not containing the active material. After 24 hours, the plants are contaminated by spraying the cotyledons with an aqueous suspension of cryopreserved Botrytis cinerea spores (50 000 spores per ml). The spores are suspended in a nutrient solution composed of 10 g/L of PDB, 50 g/L of D-Fructose, 2 g/L of NH4NO3 and 1 g/L of KH2PO4. […] Grading (% of efficacy) is carried out 4 to 5 days after the contamination, in comparison with the control plants.

For another series, the system named is Phakopsora pachyrhizi. Kind of series: In vivo preventive test on Phakopsora pachyrhizi (soybeans). To be noted: soybean plants, preventive spray, dose 10 ppm, evaluated 7 days after inoculation.
Another series concerns Pyrenophora teres. Kind of series: In vivo preventive test on Pyrenophora teres (net blotch on barley). To be noted: barley plants, preventive spray, dose 100 ppm, grading 14 days after contamination. Here is the method:
Barley plants (“Plaisant” variety), sown in starter cups on a 50/50 peat soil-pozzolana substrate and grown at 22° C., are treated at the 1-leaf stage (10 cm height) by spraying with the active ingredient prepared as described above. Plants, used as controls, are treated with the mixture of acetone/tween/DMSO/water not containing the active material. After 24 hours, the plants are contaminated by spraying the leaves with an aqueous suspension of Pyrenophorateres spores (12 000 spores per ml). The spores are collected from a 12-day-old culture. […] Grading (% of efficacy) is carried out 14 days after the contamination, in comparison with the control plants.

From patent publication US9630943B2, “Tetrahydronaphthyl(thio) carboxamides” (BAYER CROPSCIENCE AG, priority 2012, dated 2017) come the findings set out here.

In turn, `Cc1nc(C(F)F)c(C(=O)Nc2cccc3c2CCCC3(C)C)s1` [Example 3] yielded a biological efficacy with Pyricularia oryzae of no less than 90%. In series [1] (method [a]), the “LogP^[a]” value is 3.64^[a].

Consider `CCCC1(C)CCCc2c(NC(=O)c3cn(C)nc3C(F)F)cccc21` (centres unmarked) [Example 94], for which, in series [1] (method [a]), the “LogP^[a]” value is 4.08^[a]. Further, the biological efficacy in the series on Septoria tritici is no less than 70%; in the series on Uromyces appendiculatus, no less than 80%.

Broadly, the chromatographic logP is a lipophilicity value derived from retention on a column. A low value points to a more hydrophilic compound. `Cc1nc(C(F)F)c(C(=S)Nc2cccc3c2CCC(C)(C)C3)s1` [Example 97, 4-(difluoromethyl)-N-(6,6-dimethyl-5,6,7,8-tetrahydronaphthalen-1-yl)-2-methyl-1,3-thiazole-5-carbothioamide]: in the series on Sphaerotheca fuliginea, the biological efficacy is listed as no less than 80%. The compound further registered a chromatographic logP in series [1] (pH 2.7) of 4.16.

With `CC(C)C1CCCc2c(NC(=O)c3cn(C)nc3C(F)F)cccc21` (centres unmarked) [Example 98], the biological efficacy in the series on Botrytis cinerea is recorded as no less than 90%; with Phakopsora pachyrhizi, no less than 70%; in the series on Pyrenophora teres, no less than 90%. In addition, the “LogP[a]” value in series [1] (method [a], HPLC on reversed phase columns) is 3.73^[a].
